From article PMC10387993, “New pyrimidine-N-β-D-glucosides: synthesis, biological evaluation, and molecular docking investigations” (Turkish Journal of Chemistry, 2023)
In brackets after ≈: the same amount, converted by molar mass. Like-named read-outs stand apart in the source and are kept apart here. Each block holds one compound with its values, some of them ahead of it.

Experiments:
normal FL cells = test: cells; format: cell-based; conditions: FL normal cells, MTT
Method: (§1) The cell lines were cultured in a cell medium (Dulbecco’s modified eagle’s or RPMI 1640) enriched with 10% (v/v) fetal bovine serum and 2% (v/v) Penicillin-Streptomycin (10,000 U/mL). First, old medium was removed out of the flask when the cells reached approximately 80% confluence. Next, cells were taken from the flasks surface using trypsin-EDTA solution and then subjected to centrifugation. Following, the cell pellet was suspended with fresh media and was inoculated into wells.
(§2) A cell suspension containing approximately 1 × 10^4 cells in 100 μL was seeded into the wells of 96-well culture plates. […]. The final volume of the wells was set to 200 μL by medium. Cell proliferation assay was evaluated by MTT (yellow tetrazolium MTT (3-(4,5-dimethylthiazolyl-2)-2,5-diphenyltetrazolium bromide) methods. Briefly, an MTT stock solution (5 mg of MTT/mL of distilled water) was filtered and kept at −20 °C until use. The cells were exposed to an MTT reagent (consisting of one parts of MTT stock solutions and nine parts of fresh RPMI 1640 without phenol red) for 4 h to form MTT formazan dye followed by the dye dissolved in DMSO with Sorenson’s buffer for 30 min at room temperature and then the plate was measured at 560 nm, with 690 nm as a reference interval, using a microplate reader. Each experiment was repeated at least three times for each cell line.
(§3) IC50 value is a concentration that inhibits half of the cells in vitro. The half maximal inhibitory concentration (IC50) of the test and control compounds was calculated using XLfit5 or excel spreadsheet and represent in μM at 95% confidence intervals. The proliferation assay results were expressed as the percent inhibition according to the following formula: % Inhibition = [1 - (Absorbance of Treatments /Absorbance of DMSO) × 100]. Three dose response parameters (GI50, TGI, LC50) were calculated according to the following formulas using the absorbance measurements of time zero (Tz), control growth (C), and test growth in the presence of drug (Ti). Growth inhibition of 50% (GI50) was calculated from [(Ti-Tz)/(C-Tz)] × 100 = 50, which is the drug concentration resulting in a 50% reduction in the net growth increase in control cells during the drug incubation. The drug concentration resulting in total growth inhibition (TGI) was calculated from Ti = Tz. The LC50 indicating a net loss of cells following treatment was calculated from [(Ti-Tz)/Tz] × 100 = −50.

calf thymus DNA (CT-DNA) = conditions: CT-DNA binding experiments in the literature ref [32]–[33]; cited from earlier work
[1] = LDH cytotoxic activity assay, FL; format: cell-based; conditions: human, FL cells (normal cells), FL, 25 μg/mL
Method: as §1
(§4) Approximately 5 × 10^3 cells in 100 μL were placed into 96-well plates as triplicates and treated with 25, 50, 75, and 100 μg/mL concentrations of test compounds at 37 °C with 5% CO2 for 24 h. LDH activity was obtained by determining absorbance at 492–630 nm using a microplate reader.

C6 (Rat brain glioma) = test: cells; format: cell-based; conditions: C6, MTT
Method: as §1, §2, §3

Hep3B = test: cells; format: cell-based; conditions: MTT
Method: as §1, §2, §3

A549 = test: cells; format: cell-based; conditions: A549, MTT
Method: as §1, §2, §3

HT29 = test: cells; format: cell-based; conditions: HT29, MTT
Method: as §1, §2, §3

MCF7 = test: cells; format: cell-based; conditions: MCF7, MTT
Method: as §1, §2, §3

HeLa = test: cells; format: cell-based; conditions: MTT
Method: as §1, §2, §3

[2] = LDH cytotoxic activity assay, C6; format: cell-based; conditions: rat, C6 glioma cells, C6, 25 μg/mL
Method: as §1, §4

[3] = LDH cytotoxic activity assay, HeLa; format: cell-based; conditions: human, HeLa cells, 25 μg/mL
Method: as §1, §4

[4] = LDH cytotoxic activity assay, A549; format: cell-based; conditions: human, A549 cells, A549, 25 μg/mL
Method: as §1, §4

[5] = LDH cytotoxic activity assay, Hep3B; format: cell-based; conditions: human, Hep3B cells, 25 μg/mL
Method: as §1, §4

[6] = LDH cytotoxic activity assay, HT29; format: cell-based; conditions: human, HT29 cells, HT29, 25 μg/mL
Method: as §1, §4

[7] = LDH cytotoxic activity assay, MCF7; format: cell-based; conditions: human, MCF7 cells, MCF7, 25 μg/mL
Method: as §1, §4

IC50 (C6 (Rat brain glioma); Rattus norvegicus, read-out: IC50): 54.3 µg/mL (≈ 417 µM)
IC50 (Hep3B; Homo sapiens, read-out: IC50): 62.9 µg/mL (≈ 483 µM)
IC50 (A549; Homo sapiens, read-out: IC50): 69.8 µg/mL (≈ 537 µM)
IC50 (HT29; Homo sapiens, HT-29, read-out: IC50): 65.2 µg/mL (≈ 501 µM)
IC50 (MCF7; Homo sapiens, read-out: IC50): 74.2 µg/mL (≈ 570 µM)
IC50 (HeLa; Homo sapiens, read-out: IC50): 61.6 µg/mL (≈ 473 µM)
SMILES: O=c1[nH]cc(F)c(=O)[nH]1 [Compound 5FU, 5-fluorouracil, reference compound]
IC50 (normal FL cells; read-out: IC50): 59.1 µg/mL (≈ 454 µM)
binding constant (Kb) (calf thymus DNA (CT-DNA)): 97000 M⁻¹
cytotoxicity at 24 h, 25 μg/mL [1]: 8.44%
cytotoxicity at 24 h, 25 μg/mL [2]: 10%
cytotoxicity at 24 h, 25 μg/mL [3]: 8.83%
cytotoxicity at 24 h, 25 μg/mL [4]: 9.19%
cytotoxicity at 24 h, 25 μg/mL [5]: 9.67%
cytotoxicity at 24 h, 25 μg/mL [6]: 7.91%
cytotoxicity at 24 h, 25 μg/mL [7]: 7.69%

SMILES: N.N.[Cl][Pt][Cl] [Cisplatin, cisplatin, reference compound]
IC50 (normal FL cells): 52.79 µg/mL
binding constant (Kb) (calf thymus DNA (CT-DNA)): 57300 M⁻¹
IC50 (C6 (Rat brain glioma)): 33.08 µg/mL
IC50 (Hep3B): 48.69 µg/mL
IC50 (A549): 60.49 µg/mL
IC50 (HT29): 40.39 µg/mL
IC50 (MCF7): 63.79 µg/mL
IC50 (HeLa): 50.29 µg/mL
